Entries after “also recorded” stand apart in the source; their conditions may differ.
Key:
[1] = test system: human neutrophils; assay: In vitro NET formation in neutrophils stimulated by PMA or necrotic TCs media; format: cell-based; conditions: PAD inhibitor 200 μM; PMA 25 nM or necrotic TCs media
Method: Neutrophils were isolated from human healthy volunteers using standard dextran sedimentation followed by Ficoll-Hypaque density centrifugation procedures (Brinkmann et al., 2004, Science 303:1532-1535). Blood donors provided written informed consent forms approved by the local ethical committee. Neutrophils were suspended in RPMI medium (2×10^5˜2×10^6 cell/ml) and seeded into 8-well microns slides or 12˜96-well plates (Ibidi, Martinsried, Germany) in a 5% carbon dioxide atmosphere at 37° C. for 30 minute before stimulation. The neutrophils were placed in normal or hypoxia condition (1% oxygen) for 3, 6, or 24 hours, or stimulated by Phorbol 12-myristate 13-acetate (PMA, 25 nM, Sigma-Aldrich), total calf thymus histones (10, 50, or 100 μg/ml), and necrotic conditioned media from TCs (control, hypoxia, H2O2 stimulation) for 3-4 hours. […]
(§1) In human neutrophil experiments, NETs were quantified by the MPO-DNA sandwich ELISA method using anti-DNA abs (Roche, Mannheim, Germany) and anti-human MPO abs (AbD Serotec) as described (Nakazawa, 2014, J Am Soc Nephrol 25:990-7). In mouse neutrophils experiments, BAL NETs (undiluted) and plasma NETs (×2 diluted in PBS) were evaluated by NE-DNA complex using anti-DNA abs and anti-mouse NE abs (Santa Cruz) as described (Sayah et al., 2015, Am J Respir Crit Care Med 191:455-63). The CitH3 positive NETs were quantified using ImageJ software.

[2] = test system: bilateral IRI kidney mice; assay: Bilateral IRI kidney model mice (post-ischemic AKI); format: in vivo; conditions: ischemia 35 min, reperfusion 24 h
Method: C57BL/6N male mice were procured from Charles River Laboratories (Sulzfeld, Germany). 6-8 week-old mice (N=5-14) were anesthetized before renal pedicle clamping (unilateral: 15, 25, 35, or 45 min) with a microaneurysm clamp via flank incisions (Medicon, Tuttlingen, Germany). Body temperature was maintained at between 37° C. and 38° C. throughout the procedure by placing the mice on a heating pad. After clamp removal, recovery of blood flow to the kidney was confirmed as evidenced by returning to its original color, before closing the wound. To maintain fluid balance, all mice were supplemented with 0.5 ml of 0.9% NaCl administered peritoneally. Mice were killed after 0 min, 15 min, 30 min, 6 h, 12 h, 15 h, 24 h, 2 d, 3 d, 7 d and 10 days after surgery. Bilateral IRI mice (ischemia 35 min, reperfusion 24 h) were treated with PAD inhibitor (20 mg/kg, intraperitoneal injection; i.p: CALBIOCHEM®), anti-histone IgGs (20 mg/kg, i.p; clone BWA3; IMMUNOMEDICS®, Morris Plains, N.J.), necrosis inhibitor combination (Necrostatinl/Enzo 1.65 mg/kg i.p, Ferrostatin/CALBIOCHEM®, 2 mg/kg i.p, Ciclosporin/Novartis 10 mg/kg, i.v) 2 hours before IRI surgery. Neutrophil depletion was performed as described previously (Huang et al., 2015, Hepatology 62:600-14) with an i.p. injection of 500 μg anti-Ly6G IgGs (1A8) (BIOXCELL®) or control IgGs 24 and 2 hours before IRI surgery.
For immunofluorescence, the tissues after sacrifice were fixed with 4% paraformaldehyde for 2 hours, dehydrated with 30% sucrose for 24 hours at 4° C., frozen in OCT (TISSUE-TEK®, OCT compounds, SAKURA®) and cryosectioned (5 μm thick). The CitH3 positive NETs and TUNEL positive necrotic cells were quantified using ImageJ software.
For immunostaining, rat anti-mouse Ly6b (neutrophils) ab (AbD Serotec, Oxford, United Kingdom), rabbit citrullinated histone 3 ab (Abcam, Cambridge, United Kingdom), or goat anti neutrophil elastase ab (Santa Cruz Biotechnology, USA) were used. To count the positive cells, 3 high-power fields (100×) were analyzed. BUN and creatinine were measured using urea or creatinine FS kits (DiaSys Diagnostic Systems, Holzheim, Germany) according to the manufacturer's protocols. Mice plasma was analysed for IL-6 and TNF cytokine secretion by ELISA (BD Pharmingen, San Diego, Calif.). Plasma histone was analyzed by western blotting. To prepare a control model with high concentration of histone, lipopolysaccharide (LPS, 20 mg/kg, i.p) was injected into WT mice (8 weeks age, male), and blood samples were taken 6 hours after LPS injection (Li et al., 2011, Surgery 150:442-51). Bronchoalveolar lavage fluid (BAL) in IRI mice was performed as previously described (Sayah et al., 2015, Am J Respir Crit Care Med 191:455-63). The BAL cell number and supernatant NETs were evaluated by cell counter and NE-DNA complexes ELISA, respectively.
as §1

[3] = test system: HK-2 cells; assay: NETs cytotoxicity to TCs (conditioned NETs media, LDH assay); format: cell-based, human; conditions: 20 h after addition; neutrophils pre-treated with PAD inhibitor 200 μM
Method: Neutrophils were stimulated by PMA, histones, or necrotic TCs derived conditioned media and 3 hours after incubation the supernatant was replaced with fresh media (RPMI), and the bottom NETs were collected to avoid the contamination of the media with exogenous PMA or necrotic TCs or histones as previously described (Najmeh et al., 2015, J Vis Exp 16:98). After centrifugation (1200 rpm, 5 min), the supernatants were applied to TCs (1:1). At 20 hours after addition of conditioned NETs media, TCs injury was evaluated by LDH assay. To investigate whether the formed NETs affect fresh neutrophils, conditioned NETs media was applied to fresh neutrophils and 4 h after incubation, additional NET formation in fresh neutrophils was evaluated by immunostaining.
A cell death detection (TUNEL) kit (Roche) was used to quantify dead cells in accordance with the manufacturer's instructions. Systemic dead cell derived DNAs in plasma were quantified by PICOGREEN® dsDNA assay kit (Thermo Fisher Scientific). In vitro, cytotoxicity was evaluated by LDH assay (Roche).

[4] = test system: IRI-induced kidney damage; conditions: chemical inhibitors of necroptosis, ferroptosis, MPT-RN; cited from earlier work
[5] = molecular target: DDD of PKA (Homo sapiens, UniProt P13861); conditions: cited from earlier work
Sequence of DDD of PKA (P13861 2-45 limits assumed): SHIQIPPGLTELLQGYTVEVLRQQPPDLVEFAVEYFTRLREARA

[6] = test system: RII and RI isoforms of PKA; conditions: Gold et al. 2006; cited from earlier work
[7] = test system: glomeruli; assay: Histone toxicity on glomeruli ex vivo; format: cell-based, mice
Excerpt: Whether glomerular toxicity of extracellular histones is TLR2/4-dependent is not clear. To answer this question we exposed glomeruli isolated from wild type and Tlr2/4-deficient mice to histones ex vivo. […] We also studied the effects of extracellular histones on glomeruli in vivo. Because intravenous histone injection kills mice immediately by pulmonary microvascular injury (Xu et al., 2009, Nat Med 15:1318), we injected histones directly into the left renal artery in anaesthetized mice. Unilateral histone injection caused glomerular lesions within 24 hours ranging from minor endothelial fibrinogen positivity to thrombotic microangiopathy and global glomerular necrosis (not shown). The contralateral kidney remained unaffected (not shown).

[8] = test system: glomerular endothelial cells, podocytes, and parietal epithelial cells; assay: Histone killing of glomerular cells (summary); format: cell-based, mouse; conditions: histones from calf thymus or released by neutrophils undergoing NETosis
Method: Mouse glomerular endothelial cells (GEnC (46)), podocytes (47)), and parietal epithelial cells (PECs, (48)) were cultured in 96 well plates with RPMI media without FCS and PS and allowed to adhere overnight. The cells were stimulated with the different concentrations of total calf thymus histones (10, 20, 30, 40, 50 and 100 μg/ml) with or without histone antibody for another 18-20 h. Cytotoxicity assay was performed using Promega CELLTITER 96® non-radioactive cell proliferation assay (MTT Assay Kit, Mannheim, Germany). Glomerular cells were also incubated with histones with or without anti-histone IgG, heparin and/or aPC. LDH assay using cytotoxicity detection kit (Roche Diagnostics, Mannheim, Germany) was used to assess cell death.

[9] = test system: GBM antiserum-induced glomerulonephritis in mice; assay: Anti-GBM nephritis model, delayed onset of treatment (established disease); format: in vivo
Method: C57BL/6 mice were procured from Charles River (Sulzfeld, Germany). 6-8 week old mice received an intravenous injection of 100 μl of anti-GBM serum (sheep anti-rat glomeruli basement membrane serum procured from Probetex INC, PTX-001). Urine samples were collected at different time points after antiserum injection to evaluate the functional parameters of kidney damage. On day 7 the mice were sacrificed by cervical dislocation to collect plasma and kidney tissue. Kidneys were kept at −80° C. for protein isolation and in RNALATER® solution at −20° C. for RNA isolation. A part of the kidney was also kept in formalin to be embedded in paraffin for histological analysis (Teixeira et al., 2005, Kidney Int 67:514B). We treated groups of mice either with 20 mg/kg, i.p. control IgG or anti-histone antibody (clone BWA-3) to neutralize the effects of extracellular histones.
Renal sections of 2 μm were stained with periodic acid-Schiff reagent. Glomerular abnormalities were scored in 50 glomeruli per section by a blinded observer. The following criteria were assessed in each of the 50 glomeruli and scored as segmental or global lesions if less or more than 50% of the glomerular tuft were affected by focal necrosis and capsule adhesions. Cellular crescents were assessed separately when more than a single layer of PECs were present around the inner circumference of Bowman' s capsule. Immunostaining was performed as described using the following primary antibodies: for WT-1/nephrin, neutrophils (Serotec, Oxford, UK), Mac-2 (Cedarlane, Ontario, Canada), TNF-α (Abcam, Cambridge, UK) and fibrinogen (Abcam, Cambridge, UK). Stained glomerular cells were quantified in 50 glomeruli per section.
We mext examined whether histone neutralization could be therapeutic in established disease. […] In another series of experiments we initiated anti-histone IgG, heparin, and aPC treatments 24 hours after GBM antiserum injection, a time point where massive proteinuria and elevated BUN were already established (not shown). […]

[10] = test system: PECs; assay: Histone-induced activation of parietal epithelial cells; format: cell-based, mouse
Excerpt: Mitogenic plasma proteins leaking from injured glomerular capillaries cause PEC hyperplasia and glomerular crescent formation (Ryu et al., 2012, J Pathol 228:482; Smeets et al., 2009, J Am Soc Nephrol 20:2593; Smeets et al., 2009, J Am Soc Nephrol 20:2604).
Previous reports documented that heparin and recombinant activated protein C (aPC) also block histone toxicity (Xu et al., 2009, Nat Med 15:1318; Wildhagen et al., 2013, Blood 123:1098). […] Thus, extracellular histones activate PECs in a TLR2/4-dependent manner, a process that may act synergistically with other triggers of PEC hyperplasia during crescent formation and that can be blocked by anti-histone IgG, aPC or heparin.

[11] = in vivo; cited from earlier work

NC(=O)[C@H](CCCN=C(N)CCl)NC(=O)c1ccccc1 [PAD inhibitor, Cl-amidine]
induced NET formation in neutrophils (MPO-DNA complex of supernatants) [1]: abrogated | NET components in plasma [2]: substantially reduced | expression of AKI marker genes [2]: significantly reduced | renal function (plasma creatinine, plasma urea) [2]: significantly reduced | tissue necrotic area / tubular necrosis ([2]; PAS and TUNEL staining): significantly reduced | protective effect on IRI kidney (overall) ([2]; listed as NET inhibitor): ameliorates | protective effect on IRI kidney (overall) ([2]; listed as inhibitor of NET formation): protected | abundance of NETs in the post-ischemic kidney ([2]; treated before surgery): substantially reduced | tubular cell injury by conditioned NETs media (LDH assay) [3]: abrogated; also recorded: reduced the damage of TCs

CCOC(=O)c1ccc(NC2CCCCC2)c(N)c1 [ferrostatin 1]
kidney injury [4]: did not completely prevent

CN1C(=O)C(Cc2c[nH]c3ccccc23)NC1=S (stereo not shown) [necrostatin 1]
kidney injury [4]: did not completely prevent

CC[C@H]1C[C@H](C)[C@@]2(NC1=O)O[C@@H](C[C@H](O)[C@@H](C)CC/C=C/C=C(\C)[C@@H]1C/C=C/C=C/[C@H](O)[C@H](C)[C@@H](O)[C@@H](CCC(C)=O)C(=O)N[C@@H](C(C)C)C(=O)N[C@@H](Cc3cccc(O)c3)C(=O)N3CCC[C@H](N3)C(=O)O1)[C@H](C)[C@H](O)[C@@H]2C [sanglifehrin A]
kidney injury [4]: did not completely prevent

RII selective AD sequence, SEQ ID NO:21 QIEYLAKQIVDNAIQQA [AKAP-IS]
Kd ([5]; Alto et al. 2003, read-out: binding constant for DDD): 0.4 nM | affinity for the MI DDD sequence ([5]; Hundsrucker et al. 2006): particularly high affinities

SuperAKAP-IS: SEQ ID NO:30 QIEYVAKQIVDYAIHQA
selectivity for the RII isoform of PKA compared with the RI isoform [6]: five order of magnitude higher

heparin
histone toxicity on glomeruli ex vivo [7]: completely blocked | killing of glomerular cells by histones / extracellular histone toxicity in vitro [8]: prevented | renal dysfunction and structural injury during severe GN ([9]; delayed onset of histone blockade): protects | severe glomerulonephritis in mice with established disease ([9]; mouse, in vivo): abrogated | all aspects of GBM antiserum-induced severe GN ([9]; pre-emptive as well as delayed onset of histone neutralization): abrogates | PEC activation by histones [10]: protective effect

veltuzumab: humanized IgG1 antibody against CD20
immunogenicity in subjects compared with rituximab [11]: less immunogenic
